Key:
CBS^Δ516–525 [1] = biological target: T1, CBS^Δ516–525 (Homo sapiens, UniProt P35520, DEL516-525); test: ITC; assay type: binding; details: 25 °C, 20 mM HEPES pH 7.4; two-site fit
T1 construct: full-length with regulatory domain loop 516-525 deleted, E. coli Rosetta (DE3); dimer; no C-terminal His-tag
T1 sequence (P35520 with tags, fused parts or gaps DEL516-525): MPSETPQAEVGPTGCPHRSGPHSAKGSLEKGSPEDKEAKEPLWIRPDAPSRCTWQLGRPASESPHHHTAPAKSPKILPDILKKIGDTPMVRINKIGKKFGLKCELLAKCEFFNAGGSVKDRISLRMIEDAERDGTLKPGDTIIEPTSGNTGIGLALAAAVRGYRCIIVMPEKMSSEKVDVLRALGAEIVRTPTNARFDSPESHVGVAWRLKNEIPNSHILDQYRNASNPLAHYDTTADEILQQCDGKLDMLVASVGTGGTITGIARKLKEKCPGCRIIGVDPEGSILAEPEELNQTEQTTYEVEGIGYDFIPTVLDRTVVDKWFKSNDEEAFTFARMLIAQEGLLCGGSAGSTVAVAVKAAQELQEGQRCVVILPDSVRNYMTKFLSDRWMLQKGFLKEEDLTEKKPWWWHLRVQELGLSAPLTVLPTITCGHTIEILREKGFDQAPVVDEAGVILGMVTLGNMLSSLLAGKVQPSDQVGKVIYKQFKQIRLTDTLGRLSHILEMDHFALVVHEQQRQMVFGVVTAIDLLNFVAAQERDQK

CBS^Δ516–525 [2] = biological target: T1, CBS^Δ516–525; test: AzMC fluorescence H2S production; assay type: biochemical; details: read-out: Kact

EC50 (CBS^Δ516–525 [2]): 26 to 36 µM
SMILES: C[S+](CC[C@H](N)C(=O)O)C[C@H]1O[C@@H](n2cnc3c(N)ncnc32)[C@H](O)[C@@H]1O (stereo partly drawn) [S-adenosyl-L-methionine]
Kd (CBS^Δ516–525 [1]): also presented two events, though this construct is dimeric

— paper PMC10995199, “Architecture and regulation of filamentous human cystathionine beta-synthase” (Nature Communications, 2024)
